# Experimental data taken from patent US20160200684A2, “Pharmaceutical Compositions for the Treatment of CFTR-Mediated Disorders” (Vertex Pharmaceuticals Incorporated, priority 2012, published 2016).
# Like-named read-outs stand apart in the source and are kept apart here.
# Assays:
# Format in all cases: physicochemical
# [1] = Stability of Compound 2 aqueous suspension in 0.5% methylcellulose/0.5% polysorbate 80; conditions: for conversion of salt form in suspension vehicle: at T(0), XRPD, 1H NMR
# Description: Methylcellulose (0.5 g) was combined with 99.0 g of purified water in a beaker and stirred in a 60-70° C. water bath for 30′-1 hr. The solution was stirred in a 0° C. ice/water bath for another 30′ or until clear. Polysorbate 80 (0.5 g) was added and stirring at room temperature followed for 30′-1 hr or until a clear solution was obtained.
# The appropriate amount of Compound 2 HCl salt based on free base was weighed and transferred to a scintillation vial. The desired amount of 0.5% methylcellulose and 0.5% polysorbate 80 stock solution for making a 6 mg/mL based on free base (6.48 mg/mL based on HCl salt) was transferred into the vial and sonicated for 20 minutes with alternate stirring for 1-2 minutes. The solution was homogenized for approximately 1-2 minutes.
# [2] = Stability of Compound 2 aqueous suspension in 0.5% methylcellulose; conditions: room temperature; methylcellulose formulation
# Description: A 100 mL stock solution of 0.5% by weight methylcellulose was prepared by stirring 0.5 g of methylcellulose with 99.5 g of purified water until completely dissolved (approximately 24 hours). The appropriate amount of Compound 2 HCl salt based on free base was weighed and transferred to a scintillation vial. The desired amount of 0.5% methylcellulose stock solution for making a 6 mg/mL based on free base (6.48 mg/mL based on HCl salt) was transferred into the vial and sonicated for 20 minutes and homogenized for approximately 5 minutes.
# [3] = Solubility of Compound 3 in solvents
# [4] = 0.5% methylcellulose/0.5% polysorbate 80
compound,measurement,setting,value
"Cc1ccc(NC(=O)C2(c3ccc4c(c3)OC(F)(F)O4)CC2)nc1-c1cccc(C(=O)O)c1 [Compound 2 Form I, 3-(6-(1-(2,2-difluorobenzo[d][1,3]dioxol-5-yl)cyclopropanecarboxamido)-3-methylpyridin-2-yl)benzoic acid]","chemically stable, no sign of chemical degradation","[1]; room temperature, 0.5% methylcellulose/0.5% polysorbate 80 formulation vehicle",at least 24 hrs
same,"physically and chemically stable, no sign of chemical degradation",[2],at least 24 hrs
"Cc1ccc(NC(=O)C2(c3ccc4c(c3)OC(F)(F)O4)CC2)nc1-c1cccc(C(=O)O)c1.Cl [Compound 2 HCl salt, 3-(6-(1-(2,2-Difluorobenzo [d][1,3]dioxol-5-yl)cyclopropanecarboxamido)-3-methylpyridin-2-yl)benzoic acid.HCl salt]",physical stability of suspension,[1]; [4],not physically stable
same,conversion of salt form in suspension vehicle,[1]; [4],quickly converted to Compound 2 Form I
same,conversion of salt form in suspension vehicle,"[1]; 0.5% methylcellulose/0.5% polysorbate 80, listed as HCl salt",quickly converted to Compound 2 Form I at T(0)
"CC(C)(CO)c1cc2cc(NC(=O)C3(c4ccc5c(c4)OC(F)(F)O5)CC3)c(F)cc2n1C[C@H](O)CO [Compound 3, (S)-1-(2,2-difluorobenzo[d][1,3]dioxol-5-yl)-N-(1-(2,3-dihydroxypropyl)-6-fluoro-2-(1-hydroxy-2-methylpropan-2-yl)-1H-indol-5-yl)cyclopropanecarboxamide]",solubility,"[3]; first solvent: ethyl acetate, ethanol, isopropyl alcohol, or acetone",greater than 20 mg/mL
same,solubility,"[3]; organic solvent or mixture, acetonitrile, methanol, ethanol, isopropyl alcohol, acetone, read-out: solubility",> 20 mg/mL
same,solubility,"[3]; second solvent: heptane or water, water, read-out: solubility (poor)",< 1 mg/mL
